Reference: the supplement of paper PMC4862054

What was measured:
Conditions in all cases: 72 h
[1] = system: BT-474
In short: (§1)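 For viability and cell death testing, 384-well plates carried compound at 5 concentrations in 10-fold steps over a compound-specific 10,000-fold range, and breast cancer cell lines were seeded in 20 µl suspension. After 72 h incubation, cell death was read by CellTox Green fluorescence (485/520 nm) before viability was read by CellTiter-Glo luminescence. EC50 was fitted from the dose-response curves and censored at the top concentration. Normalisation on each plate was to 0.1 % DMSO and a positive kill control.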

[2] = system: BT-549
In short: as §1

[3] = system: CAL-120
In short: as §1

[4] = system: CAL-51
In short: as §1

[5] = system: CAL-85-1
In short: as §1

[6] = system: DU-4475
In short: as §1

[7] = system: HCC1143
In short: as §1

[8] = system: HCC1599
In short: as §1

[9] = system: HCC1937
In short: as §1

[10] = system: Hs578T
In short: as §1

[11] = system: MCF-10A
In short: as §1

[12] = system: MDA-MB-231
In short: as §1

[13] = system: MDA-MB-436
In short: as §1

[14] = system: MDA-MB-453
In short: as §1

[15] = system: MDA-MB-468
In short: as §1

[16] = system: MFM-223
In short: as §1

[17] = system: SK-BR-3
In short: as §1

[18] = system: CAL-148
In short: (§2)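 After 72 h on 384-well plates pre-loaded with compound in 5 µl medium, breast cancer cell lines seeded in 20 µl were assayed for viability with 2.5 µl CellTiter-Blue at 37 °C for 2 h, read at 560/590 nm. Each plate was quality-checked by Z'-factor and normalised to vehicle and a positive kill control. EC50 comes from the fitted percent-inhibition dose-response curve, censored at the top concentration, and rows scoring zero for drug sensitivity were left out.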

[19] = system: CAL-51; remark: listed apart in the source
In short: as §2

[20] = system: CAL-85-1; remark: listed apart in the source
In short: as §2

[21] = system: DU-4475; remark: listed apart in the source
In short: as §2

[22] = system: HDQ-P1
In short: as §2

[23] = system: MDA-MB-453; remark: listed apart in the source
In short: as §2

[24] = system: BT-549; remark: listed apart in the source
In short: as §2

[25] = system: CAL-120; remark: listed apart in the source
In short: as §2

[26] = system: HCC1143; remark: listed apart in the source
In short: as §2

[27] = system: HCC1599; remark: listed apart in the source
In short: as §2

[28] = system: MDA-MB-436; remark: listed apart in the source
In short: as §2

[29] = system: MFM-223; remark: listed apart in the source
In short: as §2

[30] = system: CAL-85-1; remark: listed apart in the source
Protocol: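 Drug sensitivity and resistance testing (DSRT) of breast cancer cell lines in 384-well plates, 5 concentrations in 10-fold dilutions over a compound-specific 10,000-fold range. After 72 h, cytotoxicity was read by CellTox Green fluorescence and viability by CellTiter-Glo luminescence (multiplexed), normalised to DMSO and benzethonium chloride controls. EC50 is the inflection point of the fitted dose-response curve (bottom asymptote free, so it can be relative for partial curves) and is censored at the highest tested concentration. Rows with DSS 0 (no meaningful response) were excluded.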

Row | Structure (SMILES) | EC50, CellTiter-Glo [1] [nM] | EC50, CellTiter-Glo [2] [nM] | EC50, CellTiter-Glo [3] [nM] | EC50, CellTiter-Glo [4] [nM] | EC50, CellTiter-Glo [5] [nM] | EC50, CellTiter-Glo [6] [nM] | EC50, CellTiter-Glo [7] [nM] | EC50, CellTiter-Glo [8] [nM] | EC50, CellTiter-Glo [9] [nM] | EC50, CellTiter-Glo [10] [nM] | EC50, CellTiter-Glo [11] [nM] | EC50, CellTiter-Glo [12] [nM] | EC50, CellTiter-Glo [13] [nM] | EC50, CellTiter-Glo [14] [nM] | EC50, CellTiter-Glo [15] [nM] | EC50, CellTiter-Glo [16] [nM] | EC50, CellTiter-Glo [17] [nM] | EC50, CellTiter-Blue viability [18] [nM] | EC50, CellTiter-Blue viability [19] [nM] | EC50, CellTiter-Blue viability [20] [nM] | EC50, CellTiter-Blue viability [21] [nM] | EC50, CellTiter-Blue viability [22] [nM] | EC50, CellTiter-Blue viability [23] [nM] | EC50, CellTiter-Blue viability [24] [nM] | EC50, CellTiter-Blue viability [25] [nM] | EC50, CellTiter-Blue viability [26] [nM] | EC50, CellTiter-Blue viability [27] [nM] | EC50, CellTiter-Blue viability [28] [nM] | EC50, CellTiter-Blue viability [29] [nM] | EC50, CellTox Green [30] [nM]
1 | Cc1c(CN2CCN(C(=O)[C@H](C)O)CC2)sc2c(N3CCOCC3)nc(-c3cnc(N)nc3)nc12 [GDC-0980] | 375 | 412 | 618 | 423 | 628 | 2480 | 591 | 1340 | 3130 | 445 | 486 | 580 | 501 | 226 | 894 | 362 | 130 | 306 | 198 | 347 | 734 | 139 | 98.9 | 386 | 181 | 306 | 103 | 783 | 139 | 3200
2 | C[C@]12O[C@H](C[C@]1(O)CO)n1c3ccccc3c3c4c(c5c6ccccc6n2c5c31)CNC4=O [Lestaurtinib] | 151 | 130 | 45.1 | > 1000 | 277 | 188 | 68.7 | 238 | > 1000 | 354 | 215 | 188 | 787 | 3.03 | 25.2 | 263 | 215 |  | 330 | 284 | 186 |  | 174 | 672 | 65.5 | 151 | 201 | 202 | 133 | 356
3 | O=C1c2c(O)ccc(O)c2C(=O)c2c(NCCNCCO)ccc(NCCNCCO)c21 [Mitoxantrone] |  |  |  | 975 |  | 988 | 314 |  |  |  |  |  | 495 |  |  |  |  | 26.2 | 10.7 | 182 | 8.91 | 58.6 | 539 | 350 | 15.9 | 11.8 | 52.1 | 684 | 522 | 
4 | Nc1ccccc1NC(=O)c1ccc(CNc2nccc(-c3cccnc3)n2)cc1 [Mocetinostat] | 2920 | 1060 | 1600 | 1650 | 2710 | 1570 | 2250 | 3020 | 567 | 3430 | 5300 | 2720 | 4130 | 1200 | 1840 | 4850 | 1660 | 1790 | 3050 | 1530 | 757 | 9490 | 588 | 2620 | 75.7 | 1770 | 873 | 2020 | 4200 | 2380
5 | CS(=O)(=O)N1CCN(Cc2cc3nc(-c4cccc5[nH]ncc45)nc(N4CCOCC4)c3s2)CC1 [Pictilisib] | 1710 | 1410 | 3150 | 1230 | 997 |  | 2600 |  | 3840 | 1890 | 397 | 2960 | 6050 | 508 | 3040 | 1580 | 253 |  |  |  |  |  |  |  |  |  |  |  |  | 2150
6 | O=C(NC[C@H](O)CO)c1ccncc1Nc1ccc(I)cc1F [Pimasertib] | 456 |  | 356 | 46.2 | 1090 | 21.8 |  |  | 3070 | 5910 | 12.9 | 737 | 8470 |  |  | 1950 | > 10000 |  |  |  |  |  |  |  |  |  |  |  |  | 1340
7 | Cn1cc(CNCC2CCN(c3ncc(C(=O)NO)cn3)CC2)c2ccccc21 [Quisinostat] | 58.6 | 81.8 | 74.2 | 78.7 | 34.1 | 24 | 21.5 | 71.3 | 199 | 59.1 | 92.8 | 65.4 | 50.9 | 11 | 50.7 | 70.7 | 21.4 |  |  |  |  |  |  |  |  |  |  |  |  | 18.5
8 | CC[C@@]1(O)C(=O)OCc2c1cc1n(c2=O)Cc2cc3c(CN(C)C)c(O)ccc3nc2-1 [Topotecan] | 9160 | 1190 | 4820 | 785 | 755 | 496 | 768 | 189 | 2740 | 5130 | 5600 | 7050 | 378 | 1830 | 141 |  | 574 | 63.7 | 362 | 613 | 118 | > 1000 | 457 | 77.1 | 79.9 | 652 | 102 | 110 |  | 913
